Usually MIC stands for the least concentration at which growth counts as inhibited. Lower therefore signals inhibition by little substance.

One test has as its system strained rumen liquor. Description: In vitro rumen propionic acid screen. The following applies: control normalised as 100%; for Total VFA: 6 h incubation; for % Propionate: molar proportion of propionic acid in total VFA. The class given is cell-based, Guernsey cow. As for the experimental part:
In Vitro Rumen Propionic Acid Screen Rumen Fluid: An eight year old dry Guernsey cow, fitted with a rumen fistula (Bar Diamond Inc. P.O. Box. 60. Bar Diamond Lane. Parma. Id. 83660-0060. […] This animal was used as a source of rumen contents, which were taken at 08:00 h (before the morning feed). The material was carried to the laboratory in a pre-warmed insulated flask, and then strained through four layers of cotton gauze into another pre-warmed bottle, which was stored in an incubator at 40° C. until the fluid was dispensed into the assay tubes. Substrate Mixture: • 68 g corn starch. Ex Sigma Cat. S-4126. • 17 g α-cellulose. Ex Sigma Cat. C-6429. • 15 g Type 1 soya flour. Ex Sigma Cat. S-9633. • Mix well. The assay was conducted in 16 ml Sorvall centrifuge tubes A tablet containing 100 mg of acarbose was placed in 10 ml of buffer and shaken until the tablet was completely disrupted, giving a 10 mg/ml solution of acarbose. […] Control tubes were prepared by replacing the acarbose solution with buffer. One ml of substrate suspension was added to all the assay tubes, followed by 3 ml of warmed degassed buffer and then by 5 ml of strained rumen liquor. Suba-Seal stoppers (No. 29) were fitted, and the head pressure in the tubes reduced by passing a hypodermic needle attached to a vacuum line through the stopper until the tube contents frothed. The tubes were then placed in a 40° C. incubator for 6 hours and shaken hourly. Pre-incubation VFA concentration were determined by preparing three tubes as for incubation but 1 ml metaphosphoric/crotonic acids solution was added immediately following the rumen liquor. These tubes were stored at 4° C. and processed with the post-incubation tubes. The incubation was terminated after 6 h by removing the stoppers and adding 1 ml of metaphosphoric/crotonic acids solution. The tubes were then centrifuged for 8 minutes at 18,000 g at 4° C., and an aliquot of the supernatant stored in an automatic liquid sampler vial until required for VFA analysis by gas chromatography. (as described in […] protocol) Production of total VFA and propionate during the incubation was determined as follows. Firstly, first the pre-incubation concentrations of total VFA and propionic acid were calculated as the mean of the analyses of the pre-incubation samples. Then for each incubated sample, post-minus pre-incubation concentration gave production during incubation. The molar proportion of propionic acid in total VFA.produced during the incubation was also calculated. The total VFA and % propionic acid values were meaned for the replicate tubes, and the mean control total VFA and % propionic acid values normalised as 100%, then the change caused by the test treatments expressed relative to this value.

A further test relates to S. aureus. In words: Minimum inhibitory concentrations in aerobes (agar dilution). On the technique in general: In agar dilution, organisms are placed on agar that contains the substance at set levels.

For `CC1OC(OC2C(CO)OC(OC3C(CO)OC(O)C(O)C3O)C(O)C2O)C(O)C(O)C1NC1C=C(CO)C(O)C(O)C1O` (centres unmarked) [Acarbose, acarbose], the “Total VFA” value in the test with strained rumen liquor (dose 0.32 μg/ml) is on record as 96%; with strained rumen liquor (dose 1.6 μg/ml), 92%; in the test on strained rumen liquor (dose 8 μg/ml), 72%; in the test with strained rumen liquor (dose 40 μg/ml), 63%; in the test on strained rumen liquor (dose 200 μg/ml), 58%; in the test with strained rumen liquor (dose 1000 μg/ml), 50%. Also, the “% Propionate” value in the test with strained rumen liquor (dose 0.32 μg/ml) is given as 97%; in the test on strained rumen liquor (dose 1.6 μg/ml) it was 94%; in the test on strained rumen liquor (dose 8 μg/ml) it was 74%; in the test on strained rumen liquor (dose 40 μg/ml), 74%; in the test on strained rumen liquor (dose 200 μg/ml) it was 81%; with strained rumen liquor (dose 1000 μg/ml) it was 88%. Moreover, the MIC against S. aureus (S. aureus 3.4), with S. aureus (S. aureus 3.5), against S. aureus (S. aureus 5.1), against S. aureus (S. aureus 6.1), against S. aureus (S. aureus 8.2) and in the test with S. aureus (S. aureus 8.3) was more than 128 µg/mL throughout. In addition, the MIC is more than 128 µg/mL with S. aureus (S. aureus 9.3); more than 128 µg/mL in the test on S. aureus (S. aureus 10.3); more than 128 µg/mL against S. aureus (S. aureus 10.4); more than 128 µg/mL in the test on S. aureus (Staphylococcus aureus); more than 128 µg/mL against S. aureus (Staphylococcus aureus, NCTC6571).

The record behind these values is patent publication US7271158B2, “Treatment of rumen acidosis with α-amylase inhibitors” (Pfizer Inc., priority 2000, dated 2007).
